# Results taken from ChEMBL document CHEMBL5523716, “Discovery of novel EGFR-PROTACs capable of degradation of multiple EGFR-mutated proteins” (Eur J Med Chem, 2024).
# What was measured:
# [1] = biological target: von Hippel-Lindau disease tumor suppressor/Epidermal growth factor receptor (Homo sapiens, UniProt P00533+P40337); assay: PROTAC activity at VHL/EGFR Del19 mutant in human HCC827 cells assessed as induction of EGFR degradation incubated for 72 hrs by Western blot analysis; format: cell-based
# A549 = assay: Antiproliferative activity against human A549 cells harboring EGFR wild type assessed as inhibition of cell growth incubated for 48 to 72 hrs by CCK-8 assay; format: functional, cell-based
# NCI-H1975 = assay: Antiproliferative activity against human NCI-H1975 cells harboring EGFR L858R/T790M double mutant assessed as inhibition of cell growth incubated for 48 to 72 hrs by CCK-8 assay; format: functional, cell-based
# [2] = system: von Hippel-Lindau disease tumor suppressor/Epidermal growth factor receptor (Homo sapiens), P00533+P40337 [UNDEFINED MUTATION]; assay: PROTAC activity at VHL/EGFR Del19 mutant in human HCC827 cells assessed as maximal EGFR degradation at 3.125 to 200 nM incubated for 72 hrs by Western blot analysis relative to control; format: cell-based; details: dose 3.125-200 nM
# A-431 = assay: Antiproliferative activity against human A-431 cells harboring EGFR wild type assessed as inhibition of cell growth incubated for 48 to 72 hrs by CCK-8 assay; format: functional, cell-based
# [3] = system: von Hippel-Lindau disease tumor suppressor/Epidermal growth factor receptor (Homo sapiens), P00533+P40337 [L858R,T790M]; assay: PROTAC activity at VHL/EGFR L858R/T790M mutant in human NCI-H1975 cells assessed as maximal EGFR degradation at 0.15 to 10 uM incubated for 72 hrs by Western blot analysis relative to control; format: cell-based; details: dose 0.15-10 µM
# [4] = Antiproliferative activity against human H1975-TM cells harboring EGFR L858R/T790M/C797S mutant assessed as inhibition of cell growth incubated for 48 to 72 hrs by CCK-8 assay; format: functional, cell-based
# [5] = biological target: von Hippel-Lindau disease tumor suppressor/Epidermal growth factor receptor (Homo sapiens, UniProt P00533+P40337, T790M/L858R); assay: PROTAC activity at VHL/EGFR L858R/T790M mutant in human NCI-H1975 cells assessed as induction of EGFR degradation incubated for 72 hrs by Western blot analysis; format: cell-based
# HCC827 = assay: Antiproliferative activity against human HCC827 cells harboring EGFR Del19 mutant assessed as inhibition of cell growth incubated for 48 to 72 hrs by CCK-8 assay; format: functional, cell-based
# Sequence of von Hippel-Lindau disease tumor suppressor/Epidermal growth factor receptor (Homo sapiens), P00533+P40337 [L858R,T790M] (P00533 whole entry T790M/L858R): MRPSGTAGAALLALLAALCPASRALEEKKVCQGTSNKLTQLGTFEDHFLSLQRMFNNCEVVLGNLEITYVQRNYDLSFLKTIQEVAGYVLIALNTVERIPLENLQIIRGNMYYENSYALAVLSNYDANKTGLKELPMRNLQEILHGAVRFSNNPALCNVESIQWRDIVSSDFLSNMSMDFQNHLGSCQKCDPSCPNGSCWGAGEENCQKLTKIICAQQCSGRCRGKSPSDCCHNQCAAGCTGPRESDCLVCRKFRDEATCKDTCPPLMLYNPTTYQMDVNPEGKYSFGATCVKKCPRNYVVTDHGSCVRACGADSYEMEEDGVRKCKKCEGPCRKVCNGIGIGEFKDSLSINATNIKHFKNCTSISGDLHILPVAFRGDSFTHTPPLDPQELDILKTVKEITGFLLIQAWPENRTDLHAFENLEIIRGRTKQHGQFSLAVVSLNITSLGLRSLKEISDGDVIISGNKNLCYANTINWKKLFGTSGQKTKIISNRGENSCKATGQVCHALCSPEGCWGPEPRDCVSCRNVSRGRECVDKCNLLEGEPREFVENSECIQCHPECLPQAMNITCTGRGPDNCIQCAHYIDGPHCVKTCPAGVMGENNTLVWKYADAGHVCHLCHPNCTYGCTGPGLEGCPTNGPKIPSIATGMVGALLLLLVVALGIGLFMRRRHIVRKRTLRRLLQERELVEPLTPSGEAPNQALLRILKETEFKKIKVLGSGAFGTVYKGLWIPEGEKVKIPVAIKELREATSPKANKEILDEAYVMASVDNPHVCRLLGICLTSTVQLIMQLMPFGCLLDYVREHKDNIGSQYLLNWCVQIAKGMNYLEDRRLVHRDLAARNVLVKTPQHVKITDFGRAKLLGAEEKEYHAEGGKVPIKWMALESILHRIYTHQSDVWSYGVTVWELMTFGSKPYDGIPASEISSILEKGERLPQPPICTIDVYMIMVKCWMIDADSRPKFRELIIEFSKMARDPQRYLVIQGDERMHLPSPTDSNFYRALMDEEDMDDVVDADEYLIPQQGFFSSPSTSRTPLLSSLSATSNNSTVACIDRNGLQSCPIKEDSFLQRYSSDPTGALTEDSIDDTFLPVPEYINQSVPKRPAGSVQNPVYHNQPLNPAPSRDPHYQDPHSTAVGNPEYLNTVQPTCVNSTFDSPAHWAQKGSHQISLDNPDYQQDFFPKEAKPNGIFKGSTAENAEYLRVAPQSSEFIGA
# Sequence of von Hippel-Lindau disease tumor suppressor/Epidermal growth factor receptor (Homo sapiens), P00533+P40337 [L858R,T790M] (P40337 whole entry partner): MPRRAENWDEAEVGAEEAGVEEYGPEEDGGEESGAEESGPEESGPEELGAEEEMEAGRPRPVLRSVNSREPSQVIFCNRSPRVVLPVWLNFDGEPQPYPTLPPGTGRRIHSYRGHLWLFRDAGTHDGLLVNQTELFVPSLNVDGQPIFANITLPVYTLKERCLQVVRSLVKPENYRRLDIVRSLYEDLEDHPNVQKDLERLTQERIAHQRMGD
# Sequence of von Hippel-Lindau disease tumor suppressor/Epidermal growth factor receptor (Homo sapiens, UniProt P00533+P40337) (P00533 whole entry, looked up, stated change not applied): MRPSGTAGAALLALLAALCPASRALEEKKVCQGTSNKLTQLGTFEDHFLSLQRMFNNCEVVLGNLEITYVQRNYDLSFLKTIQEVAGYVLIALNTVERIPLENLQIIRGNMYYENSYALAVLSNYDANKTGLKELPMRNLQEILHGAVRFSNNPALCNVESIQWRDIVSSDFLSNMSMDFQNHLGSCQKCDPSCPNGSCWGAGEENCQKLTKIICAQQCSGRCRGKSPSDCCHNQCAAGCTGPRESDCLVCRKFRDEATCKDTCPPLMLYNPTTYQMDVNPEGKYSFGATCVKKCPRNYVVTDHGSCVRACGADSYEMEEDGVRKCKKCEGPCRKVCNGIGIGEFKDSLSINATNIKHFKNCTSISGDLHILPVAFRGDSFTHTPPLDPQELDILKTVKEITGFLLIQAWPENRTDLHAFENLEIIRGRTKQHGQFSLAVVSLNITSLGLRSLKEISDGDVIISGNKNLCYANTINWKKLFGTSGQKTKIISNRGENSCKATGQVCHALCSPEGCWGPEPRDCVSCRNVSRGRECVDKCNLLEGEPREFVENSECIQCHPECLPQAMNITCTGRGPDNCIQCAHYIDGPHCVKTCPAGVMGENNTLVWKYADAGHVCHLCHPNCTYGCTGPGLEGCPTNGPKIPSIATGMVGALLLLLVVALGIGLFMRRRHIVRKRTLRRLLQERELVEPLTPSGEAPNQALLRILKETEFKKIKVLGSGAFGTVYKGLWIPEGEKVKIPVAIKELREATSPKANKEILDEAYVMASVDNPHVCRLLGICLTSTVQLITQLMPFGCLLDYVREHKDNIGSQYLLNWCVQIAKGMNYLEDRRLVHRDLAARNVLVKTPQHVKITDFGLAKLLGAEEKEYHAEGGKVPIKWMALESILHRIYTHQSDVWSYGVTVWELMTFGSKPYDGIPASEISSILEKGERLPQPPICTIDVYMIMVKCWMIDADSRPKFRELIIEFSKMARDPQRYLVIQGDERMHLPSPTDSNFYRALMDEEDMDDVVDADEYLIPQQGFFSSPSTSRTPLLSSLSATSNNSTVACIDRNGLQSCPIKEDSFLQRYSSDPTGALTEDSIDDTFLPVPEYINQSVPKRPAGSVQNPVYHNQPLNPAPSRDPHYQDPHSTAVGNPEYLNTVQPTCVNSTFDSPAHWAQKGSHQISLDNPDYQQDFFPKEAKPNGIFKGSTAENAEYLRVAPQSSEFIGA
# Sequence of von Hippel-Lindau disease tumor suppressor/Epidermal growth factor receptor (Homo sapiens, UniProt P00533+P40337) (P40337 whole entry, looked up, stated change not applied): as the sequence (P40337 whole entry partner) above
# Sequence of von Hippel-Lindau disease tumor suppressor/Epidermal growth factor receptor (Homo sapiens), P00533+P40337 [UNDEFINED MUTATION] (P00533 whole entry, looked up, stated change not applied): as the sequence (P00533 whole entry, looked up, stated change not applied) above
# Sequence of von Hippel-Lindau disease tumor suppressor/Epidermal growth factor receptor (Homo sapiens), P00533+P40337 [UNDEFINED MUTATION] (P40337 whole entry, looked up, stated change not applied): as the sequence (P40337 whole entry partner) above
smiles,measurement,setting,value
CCN(CC)C/C=C/C(=O)Nc1cc2c(Nc3ccc(F)c(Cl)c3)ncnc2cc1OCc1cn(CCCCCCCCCCC(=O)N[C@H](C(=O)N2C[C@H](O)C[C@H]2C(=O)NCc2ccc(-c3scnc3C)cc2)C(C)(C)C)nn1,DC50,[1],28.7 nM
same,IC50,A549,> 20000 nM
same,IC50,NCI-H1975,380 nM
same,Emax,[2],99%
same,IC50,A-431,> 20000 nM
same,Emax,[3],93%
same,IC50,[4],> 20000 nM
same,DC50,[5],380 nM
same,IC50,HCC827,15 nM
